Reference: patent US11708344B2, “Flavone derivatives for the treatment and prophylaxis of hepatitis B virus disease” (Hoffmann-La Roche Inc., priority 2018, dated 2023)

Tests used:
[1] = system: HBeAg (surrogate marker for cccDNA) in HepDES19 cells; experiment: Engineered HepDES19 primary screen assay (HBeAg ELISA); format: cell-based, HBV; conditions: Hepatitis B virus, HepDES19, 120 h, read-out: IC50 (HBeAg level, HepDES19 primary screen assay), HepDES19 cells, 5 days compound incubation, HBeAg ELISA
In short: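 IC50 values come from 4-parameter logistic fits of HBeAg ELISA signal, the cccDNA surrogate, with CCK-8 run in parallel for viability. Compounds at half-log dilutions with 1% DMSO were applied for 5 days at 37 °C to HepDES19 cells previously cultured 8 days without Tet.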

[2] = Human microsome stability assay; format: in vitro ADME; conditions: human liver microsomes, 1 μM test compound, 0.5 mg/mL microsomal protein, 37° C., pH 7.4, 0-30 minutes
In short: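 Parent compound remaining was measured by LC-MS/MS at 0, 3, 6, 9, 15 and 30 min, following ACN quench. Reactions held 1 μM compound and 0.5 mg/mL human liver microsomal protein in pH 7.4 phosphate buffer at 37 °C, started by NADPH regeneration (1 mM NADP, 1 mM MgCl2); controls lacked NADPH.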

[3] = system: HBsAg in HBV-infected PHH; experiment: Cryopreserved primary human hepatocytes (PHH) HBV infection assay, extracellular HBsAg (CLIA); format: cell-based; conditions: Hepatitis B virus, Hepatocyte, 216 h, read-out: HBsAg IC50, Cryopreserved PHH infected with HBV, 9 days post-compound treatment, extracellular HBsAg
In short: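 Cryopreserved PHH were infected with 5.8×10^6 HBV genome equivalents in medium with 4% PEG8000 and 1% DMSO. After 9 days of treatment, extracellular HBsAg was measured by CLIA, and IC50 was derived from a 4-parameter logistic fit.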

For `COc1cc(-c2cc(=O)c3cccc(Cl)c3o2)c(OCCCOCC(=O)O)cc1Br` [Example C013, 2-[3-[5-bromo-2-(8-chloro-4-oxo-chromen-2-yl)-4-methoxy-phenoxy]propoxy]acetic acid], which IC50 [1] is on record?
The IC50 was 252 nM.

What about the “Clearance of Human microsome” value [2] of the same compound?
The value was 6.15 mL/min/kg.

What about the IC50 [3] of the same compound?
Its IC50 is 9320 nM.

Which results are given for `O=C(O)COCCCOc1cc(OC(F)(F)F)ccc1-c1cc(=O)c2cccc(Cl)c2o1` [Example C014, 2-[3-[2-(8-chloro-4-oxo-chromen-2-yl)-5-(trifluoromethoxy)phenoxy]propoxy]acetic acid]?
IC50 [1]: 2190 nM; Clearance of Human microsome [2]: 8.04 mL/min/kg; IC50 [3]: 7800 nM

Which IC50 [1] does the source give for `O=C(O)COCCCOc1cc2c(cc1-c1cc(=O)c3cccc(Cl)c3o1)OCO2` [Example C015, 2-[3-[[6-(8-chloro-4-oxo-chromen-2-yl)-1,3-benzodioxo1-5-yl]oxy]propoxy]acetic acid] here?
Its IC50 is 7870 nM.

What about the “Clearance of Human microsome” value [2] of the same compound?
Its value is 6.15 mL/min/kg.

And the IC50 [3]?
Its IC50 is 3360 nM.

Which IC50 [1] does the source give for `COc1cc(-c2cc(=O)c3cccc(Cl)c3o2)c(OCCCOCC(=O)O)cc1Cl` [Example C016, 2-[3-[5-chloro-2-(8-chloro-4-oxo-chromen-2-yl)-4-methoxy-phenoxy]propoxy]acetic acid] here?
The IC50 was 2460 nM.

What about the “Clearance of Human microsome” value [2] of the same compound?
The value was 6.15 mL/min/kg.

And the IC50 [3]?
Its IC50 is 7140 nM.

Which IC50 [1] does the source give for `Cc1ccc(-c2cc(=O)c3cccc(Br)c3o2)c(OCCCOCC(=O)O)c1` [Example C017, 2-[3-[2-(8-bromo-4-oxo-chromen-2-yl)-5-methyl-phenoxy]propoxy]acetic acid] here?
The IC50 was 492 nM.

What about the “Clearance of Human microsome” value [2] of the same compound?
The value was 6.15 mL/min/kg.

And the IC50 [3]?
Its IC50 is 2940 nM.

Which IC50 [1] does the source give for `Cc1cc(-c2cc(=O)c3cccc(Cl)c3o2)c(OCCCOCC(=O)O)cc1Cl` [Example C019, 2-[3-[5-chloro-2-(8-chloro-4-oxo-chromen-2-yl)-4-methyl-phenoxy]propoxy]acetic acid] here?
Its IC50 is 185 nM.

And the “Clearance of Human microsome” value [2]?
Its value is 6.71 mL/min/kg.

What about the IC50 [3] of the same compound?
Its IC50 is 3000 nM.

With `O=c1cc(-c2ccccc2OCCO[C@H]2C[C@@H](C(=O)O)C2)oc2c(Cl)cccc12` [Example C025-A, Cis-3-[2-[2-(8-chloro-4-oxo-chromen-2-yl)phenoxy]ethoxy]cyclobutanecarboxylic acid] as the compound, how does the IC50 [1] read?
The IC50 was 191 nM.

And the “Clearance of Human microsome” value [2]?
The value was 6.15 mL/min/kg.

What about the IC50 [3] of the same compound?
The IC50 was 2580 nM.

With `O=c1cc(-c2ccccc2OCCO[C@H]2C[C@H](C(=O)O)C2)oc2c(Cl)cccc12` [Example C025-B, Trans-3-[2-[2-(8-chloro-4-oxo-chromen-2-yl)phenoxy]ethoxy]cyclobutanecarboxylic acid] as the compound, how does the IC50 [1] read?
The IC50 was 205 nM.

And the “Clearance of Human microsome” value [2]?
The value was 6.15 mL/min/kg.

What about the IC50 [3] of the same compound?
Its IC50 is 2020 nM.

For `O=c1cc(-c2ccc(C(F)(F)F)cc2OCCO[C@H]2C[C@@H](C(=O)O)C2)oc2c(Cl)cccc12` [Example C026, Cis-3-[2-[2-(8-chloro-4-oxo-chromen-2-yl)-5-(trifluoromethyl)phenoxy]ethoxy]cyclobutanecarboxylic acid], which IC50 [1] is on record?
Its IC50 is 526 nM.

And the “Clearance of Human microsome” value [2]?
Its value is 6.81 mL/min/kg.

What about the IC50 [3] of the same compound?
The IC50 was 8950 nM.

For `O=c1cc(-c2cc(F)ccc2OCCO[C@H]2C[C@@H](C(=O)O)C2)oc2c(Cl)cccc12` [Example C033-A, Cis-3-[2-[2-(8-chloro-4-oxo-chromen-2-yl)-4-fluoro-phenoxy]ethoxy]cyclobutanecarboxylic acid], which IC50 [1] is on record?
Its IC50 is 1340 nM.

What about the “Clearance of Human microsome” value [2] of the same compound?
Its value is 6.15 mL/min/kg.

And the IC50 [3]?
Its IC50 is 1970 nM.

For `O=c1cc(-c2cc(F)ccc2OCCO[C@H]2C[C@H](C(=O)O)C2)oc2c(Cl)cccc12` [Example C033-B, Trans-3-[2-[2-(8-chloro-4-oxo-chromen-2-yl)-4-fluoro-phenoxy]ethoxy]cyclobutanecarboxylic acid], which IC50 [1] is on record?
The IC50 was 927 nM.

And the “Clearance of Human microsome” value [2]?
The value was 6.15 mL/min/kg.

What about the IC50 [3] of the same compound?
The IC50 was 4330 nM.

Which results are given for `O=c1cc(-c2ccc(F)cc2OCCO[C@H]2C[C@@H](C(=O)O)C2)oc2c(Cl)cccc12` [Example C034-A, Cis-3-[2-[2-(8-chloro-4-oxo-chromen-2-yl)-5-fluoro-phenoxy]ethoxy]cyclobutanecarboxylic acid]?
IC50 [1]: 526 nM; Clearance of Human microsome [2]: 6.15 mL/min/kg; IC50 [3]: 4690 nM

With `O=c1cc(-c2ccc(F)cc2OCCO[C@H]2C[C@H](C(=O)O)C2)oc2c(Cl)cccc12` [Example C034-B, Trans-3-[2-[2-(8-chloro-4-oxo-chromen-2-yl)-5-fluoro-phenoxy]ethoxy]cyclobutanecarboxylic acid] as the compound, how does the IC50 [1] read?
The IC50 was 1810 nM.

And the “Clearance of Human microsome” value [2]?
The value was 6.75 mL/min/kg.

And the IC50 [3]?
Its IC50 is 9110 nM.

Which IC50 [1] does the source give for `O=c1cc(-c2ccccc2OCCO[C@H]2C[C@@H](C(=O)O)C2)oc2c(Cl)cc(F)cc12` [Example C036-A, Cis-3-[2-[2-(8-chloro-6-fluoro-4-oxo-chromen-2-yl)phenoxy]ethoxy]cyclobutanecarboxylic acid] here?
Its IC50 is 261 nM.

And the “Clearance of Human microsome” value [2]?
The value was 6.15 mL/min/kg.

What about the IC50 [3] of the same compound?
The IC50 was 2420 nM.

With `O=c1cc(-c2ccccc2OCCO[C@H]2C[C@H](C(=O)O)C2)oc2c(Cl)cc(F)cc12` [Example C036-B, Trans-3-[2-[2-(8-chloro-6-fluoro-4-oxo-chromen-2-yl)phenoxy]ethoxy]cyclobutanecarboxylic acid] as the compound, how does the IC50 [1] read?
Its IC50 is 770 nM.

And the “Clearance of Human microsome” value [2]?
Its value is 6.15 mL/min/kg.

What about the IC50 [3] of the same compound?
The IC50 was 5580 nM.

With `Cc1ccc(-c2cc(=O)c3cccc(Cl)c3o2)c(OCCO[C@H]2C[C@@H](C(=O)O)C2)c1` [Example C038-A, Cis-3-[2-[2-(8-chloro-4-oxo-chromen-2-yl)-5-methyl-phenoxy]ethoxy]cyclobutanecarboxylic acid] as the compound, how does the IC50 [1] read?
The IC50 was 643 nM.

What about the “Clearance of Human microsome” value [2] of the same compound?
Its value is 6.15 mL/min/kg.

And the IC50 [3]?
The IC50 was 8610 nM.

For `O=c1cc(-c2cc(C(F)(F)F)c(Br)cc2OCCO[C@H]2C[C@H](C(=O)O)C2)oc2c(Cl)cccc12` [Example C042-B], which IC50 [1] is on record?
The IC50 was 15300 nM.

What about the “Clearance of Human microsome” value [2] of the same compound?
Its value is 6.15 mL/min/kg.

What about the IC50 [3] of the same compound?
Its IC50 is 8960 nM.

Which IC50 [1] does the source give for `O=c1cc(-c2cc3c(cc2OCCO[C@H]2C[C@@H](C(=O)O)C2)OCO3)oc2c(Cl)cccc12` [Example C043-A, Cis-3-[2-[[6-(8-chloro-4-oxo-chromen-2-yl)-1,3-benzodioxo1-5-yl]oxy]ethoxy]cyclobutanecarboxylic acid] here?
The IC50 was 2680 nM.

And the “Clearance of Human microsome” value [2]?
The value was 6.15 mL/min/kg.

What about the IC50 [3] of the same compound?
Its IC50 is 8670 nM.

Which results are given for `O=c1cc(-c2cc3c(cc2OCCO[C@H]2C[C@H](C(=O)O)C2)OCO3)oc2c(Cl)cccc12` [Example C043-B, Trans-3-[2-[[6-(8-chloro-4-oxo-chromen-2-yl)-1,3-benzodioxo1-5-yl]oxy]ethoxy]cyclobutanecarboxylic acid]?
IC50 [1]: 9420 nM; Clearance of Human microsome [2]: 7.72 mL/min/kg; IC50 [3]: 5200 nM

For `O=c1cc(-c2cc(F)c(Br)cc2OCCO[C@H]2C[C@@H](C(=O)O)C2)oc2c(Cl)cccc12` [Example C044-A, Cis-3-[2-[5-bromo-2-(8-chloro-4-oxo-chromen-2-yl)-4-fluoro-phenoxy]ethoxy]cyclobutanecarboxylic acid], which IC50 [1] is on record?
Its IC50 is 2010 nM.

And the “Clearance of Human microsome” value [2]?
Its value is 6.15 mL/min/kg.

And the IC50 [3]?
Its IC50 is 9580 nM.

What does the source list for `O=C1CCCN1c1ccc(-c2cc(=O)c3cccc(Cl)c3o2)c(OCCO[C@H]2C[C@@H](C(=O)O)C2)c1` [Example C063-A, Cis-3-[2-[2-(8-chloro-4-oxo-chromen-2-yl)-5-(2-oxopyrrolidin-1-yl)phenoxy]ethoxy]cyclobutanecarboxylic acid]?
IC50 [1]: 4950 nM; Clearance of Human microsome [2]: 9.09 mL/min/kg; IC50 [3]: 6610 nM
